From paper PMC6204753, “Non-native autoinducer analogs capable of modulating the SdiA quorum sensing receptor in Salmonella enterica serovar Typhimurium” (Beilstein Journal of Organic Chemistry, 2018)

Target: SdiA (Salmonella enterica subsp. enterica serovar Typhimurium, UniProt O66040)
Assay: S. Typhimurium-pJNS25 SdiA reporter, competitive antagonism against 10 nM L-OOHL
Assay type: cell-based
Conditions: average ± STD, change in activity from 10 nM 2 (OOHL); for Antagonism 1 μM Inhibition (%): 1 μM compound; for Antagonism 100 μM Inhibition (%): 100 μM compound
Excerpt: Biological assays for SdiA activity. Cell-based reporter strains that rely on detecting the transcriptional activity of LuxR-type receptors are commonly used to assess the activity of exogenous ligands. We used the S. Typhimurium-pJNS25 reporter strain constructed by Smith and Ahmer and also used by Janssens et al. to examine SdiA activity. This strain naturally produces SdiA and contains a reporter plasmid with the promoter region for srgE fused to the luxABCDE operon of V. fischeri (see Experimental section for details of all strains and plasmids). SdiA activity is thus reported by the production of luciferase and resulting bioluminescence. We also prepared an SdiA reporter in E. coli (JLD271-pJN105SE-pSC11SE) to examine S. Typhimurium SdiA activity in an alternate background and with a different reporter gene output. […] This reporter construct uses an arabinose inducible promoter to produce S. Typhimurium SdiA and the promoter region for srgE fused to lacZ to report SdiA activity. SdiA activity is then measured using standard β-galactosidase assays. In both reporter strains, signal was normalized to the difference between the positive control (10 μM OOHL) and the negative control (1% DMSO; no compound).
Salmonella SdiA reporter assay. S. Typhimurium-pJNS25 was grown 16–18 h overnight in LB, diluted 1:100 in fresh LB medium, and then incubated for 6 h at 37 °C with shaking at 200 rpm in the presence of compounds (1% DMSO). […] All compounds were screened at 100 μM and 1 μM in triplicate in agonism and antagonism assays. […] Dose–response analyses were performed by preparing dilutions of compounds in DMSO and testing each concentration in the agonism or antagonism assays. Competition dose–response assays (data in Figure 5) were performed in the same manner as the antagonism assays, except instead of OOHL being added to the subculture, the antagonist being tested was added. Non-linear regression curve fits were generated using GraphPad Prism software (version 6) using variable slope (four parameter) dose–response analysis.

SdiA, sequence (O66040 entry or part of it): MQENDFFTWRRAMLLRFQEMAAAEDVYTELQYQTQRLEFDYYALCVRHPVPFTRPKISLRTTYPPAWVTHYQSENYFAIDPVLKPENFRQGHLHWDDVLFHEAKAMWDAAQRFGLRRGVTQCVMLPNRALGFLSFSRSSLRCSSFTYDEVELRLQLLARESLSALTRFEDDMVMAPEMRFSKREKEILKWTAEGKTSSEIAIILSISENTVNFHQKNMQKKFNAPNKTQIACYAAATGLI

SMILES	Antagonism 1 μM Inhibition (%)	Antagonism 100 μM Inhibition (%)
O=C(NCc1cc(Br)cc(Br)c1OC(=O)c1ccccc1[N+](=O)[O-])c1ccccc1Cl [19P, reference compound]	39 ± 16%	25 ± 16%
CCCCCCCCCC(=O)N[C@H]1CCOC1=O [A4]	12 ± 19%	18 ± 7%
CCCCCS(=O)(=O)N[C@H]1CCOC1=O [A9]	10 ± 9%	13 ± 2%
O=C(CCCc1ccccc1)NC1CCOC1=O (centres unmarked) [B3]	34 ± 5%	16 ± 3%
O=C(CCCc1c[nH]c2ccccc12)N[C@@H]1CCOC1=O [B5]	30 ± 15%	-8 ± 5%
O=C(N[C@H]1CCOC1=O)c1ccc(Br)cc1 [B6]	25 ± 11%	-14 ± 17%
O=C(N[C@H]1CCOC1=O)c1ccccc1 [B8]	26 ± 3%	-13 ± 11%
O=C(CCc1ccccc1)N[C@H]1CCOC1=O [B9]	13 ± 10%	18 ± 14%
O=C(C=Cc1ccccc1)NC1CCOC1=O (centres unmarked) [B10]	16 ± 5%	-56 ± 11%
O=C(Cc1c[nH]c2ccccc12)N[C@H]1CCOC1=O [B13]	8 ± 10%	13 ± 13%
O=C(CCc1c[nH]c2ccccc12)N[C@H]1CCOC1=O [B14]	10 ± 2%	18 ± 5%
O=C(Cc1ccccc1)N[C@H]1CCOC1=O [C1]	9 ± 12%	-6 ± 5%
O=C(Cc1ccc(F)cc1)N[C@H]1CCOC1=O [C2]	2 ± 8%	-8 ± 18%
O=C(Cc1cccc(F)c1)N[C@H]1CCOC1=O [C3]	-1 ± 15%	-18 ± 12%
O=C(Cc1ccccc1F)N[C@H]1CCOC1=O [C4]	3 ± 6%	-31 ± 10%
O=C(Cc1ccc(Cl)cc1)N[C@H]1CCOC1=O [C5]	13 ± 6%	18 ± 7%
O=C(Cc1ccccc1Cl)N[C@H]1CCOC1=O [C7]	22 ± 6%	-32 ± 5%
O=C(Cc1ccccc1I)N[C@H]1CCOC1=O [C12]	9 ± 13%	-24 ± 12%
O=C(Cc1ccc([N+](=O)[O-])cc1)N[C@H]1CCOC1=O [C13]	24 ± 4%	14 ± 9%
O=C(Cc1ccccc1[N+](=O)[O-])N[C@H]1CCOC1=O [C15]	5 ± 2%	-17 ± 18%
O=C(Cc1c(F)c(F)c(F)c(F)c1F)N[C@H]1CCOC1=O [C16]	5 ± 3%	-32 ± 18%
[N-]=[N+]=Nc1ccc(CC(=O)N[C@H]2CCOC2=O)cc1 [C17]	13 ± 11%	9 ± 6%
O=C(Cc1ccc(C(F)(F)F)cc1)N[C@H]1CCOC1=O [C20]	15 ± 10%	8 ± 6%
Nc1ccc(CC(=O)N[C@H]2CCOC2=O)cc1 [C21]	4 ± 12%	13 ± 4%
CC(C)(C)OC(=O)Nc1ccc(CC(=O)N[C@H]2CCOC2=O)cc1 [C22]	-9 ± 2%	6 ± 6%
O=C(Cc1ccc(O)cc1)N[C@H]1CCOC1=O [C23]	6 ± 2%	16 ± 3%
CCOc1ccc(CC(=O)N[C@H]2CCOC2=O)cc1 [C25]	12 ± 8%	7 ± 5%
O=C(CCc1cccs1)N[C@H]1CCOC1=O [D3]	10 ± 2%	6 ± 9%
